Data: patent US6737383B1, “Herbicidal oxadiazolidines” (priority 1999, dated 2004)

Assays:
bedstraw = test: Test B pre/postemergence bedstraw; format: in vivo, Galium aparine
Procedure, shortened: (§1)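 Response is a visual 0-to-10 score relative to untreated plants, where 0 means no effect and 10 means complete control, taken twelve to sixteen days after application. Treatments went onto soil at planting and onto foliage of 1- to 4-leaf plants, using a surfactant-containing non-phytotoxic solvent.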

blackgrass = test: Test B pre/postemergence blackgrass; format: in vivo, Alopecurus myosuroides
Procedure, shortened: as §1

surinam grass = test: Test B pre/postemergence surinam grass; format: in vivo, Brachiaria decumbens
Procedure, shortened: as §1

cocklebur = test: Test B pre/postemergence cocklebur; format: in vivo, Xanthium strumarium
Procedure, shortened: as §1

corn = test: Test B pre/postemergence corn; format: in vivo, Zea mays
Procedure, shortened: as §1

morningglory = test: Test B pre/postemergence morningglory; format: in vivo, Ipomoea hederacea
Procedure, shortened: as §1

pigweed = test: Test B pre/postemergence pigweed; format: in vivo, Amaranthus retroflexus
Procedure, shortened: as §1

rape = test: Test B pre/postemergence rape; format: in vivo, Brassica napus
Procedure, shortened: as §1

soybean = test: Test B pre/postemergence soybean; format: in vivo, Glycine max
Procedure, shortened: as §1

sugar beet = test: Test B pre/postemergence sugar beet; format: in vivo, Beta vulgaris; settings: for Plant response rating, Sugarbeets: Rate 250 g/ha
Procedure, shortened: as §1

velvetleaf = test: Test B pre/postemergence velvetleaf; format: in vivo, Abutilon theophrasti; settings: for Plant response rating, Velvetleaf: Rate 250 g/ha
Procedure, shortened: as §1

wild oat = test: Test B pre/postemergence wild oat; format: in vivo, Avena fatua; settings: for Plant response rating, Wild oats: Rate 250 g/ha
Procedure, shortened: as §1

purple nutsedge = test: Test B pre/postemergence purple nutsedge; format: in vivo, Cyperus rotundus
Procedure, shortened: as §1

rice = test: Test B flood test rice; format: in vivo, Oryza sativa
Procedure, shortened: (§2)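 Read-out is a visual response score from 0 (no effect) to 10 (complete control), assigned by comparison with untreated controls. Treatment was applied at the 2-leaf stage, and plants stayed in the greenhouse for twelve to sixteen days before scoring.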

smallflower flatsedge = test: Test B flood test smallflower flatsedge; format: in vivo, Cyperus difformis
Procedure, shortened: as §2

bamyardgrass = test: Test B flood test barnyardgrass; format: in vivo, Echinochloa crus-galli
Procedure, shortened: as §2

[1] = Postemergence, Rate 62 g/ha, scale 0 to 10, 0 is no effect, 10 is complete control
[2] = Postemergence, Rate 250 g/ha, scale 0 to 10, 0 no effect, 10 complete control
[3] = Preemergence, Rate 62 g/ha, scale 0 to 10 (0 no effect, 10 complete control)
[4] = Preemergence, Rate 125 g/ha, scale 0 to 10 (0 no effect, 10 complete control)
[5] = Preemergence, Rate 250 g/ha, scale of 0 to 10 where 0 is no effect and 10 is complete control
[6] = Preemergence, Rate 500 g/ha, scale 0 to 10 (0 no effect, 10 complete control)
[7] = Postemergence, Rate 125 g/ha, scale of 0 to 10 where 0 is no effect and 10 is complete control
[8] = Rate 62 g/ha, Postemergence, scale of 0 to 10 where 0 is no effect and 10 is complete control
[9] = Rate 500 g/ha, Postemergence, scale 0 to 10, 0 no effect, 10 complete control
[10] = Rate 250 g/ha, Postemergence, scale 0 to 10, 0 is no effect, 10 is complete control
[11] = Preemergence, Rate 125 g/ha, 0 is no effect, 10 is complete control
[12] = Preemergence, scale of 0 to 10 where 0 is no effect and 10 is complete control
[13] = Postemergence, scale 0 to 10, 0 is no effect, 10 is complete control
[14] = Postemergence (flood test species), Rate 125 g/ha, scale of 0 to 10 where 0 is no effect and 10 is complete control
[15] = Rate 62 g/ha, Postemergence section, flood test species, scale of 0 to 10 where 0 is no effect and 10 is complete control
[16] = Rate 250 g/ha, Postemergence (flood test), scale 0 to 10, 0 is no effect, 10 is complete control
[17] = Rate 500 g/ha, listed under Postemergence (flood test species), scale 0 to 10, 0 no effect, 10 complete control

CC(C)N(C(=O)n1oc(=O)n(C2CCCCC2)c1=O)c1ccc(F)cc1 [Compound 110]
6: Plant response rating, Redroot pigweed (pigweed; [4]) | Redroot pigweed plant response rating (pigweed; [9]) | Rape plant response rating (rape; [9]) | Soybean plant response rating (soybean; [6])
8: Bedstraw plant response rating (bedstraw; [2]) | Blackgrass plant response rating (blackgrass; [9]) | Redroot pigweed plant response rating (pigweed; [6]) | Rape plant response rating (rape; [6])
3: Plant response rating, Blackgrass (blackgrass; [4]) | B. signalgrass plant response rating (surinam grass; [3]) | B. signalgrass plant response rating (surinam grass; Rate 500 g/ha, Postemergence, scale of 0 to 10 where 0 is no effect and 10 is complete control) | Cocklebur plant response rating (cocklebur; [9]) | Plant response rating, Corn (corn; [4]) | Redroot pigweed plant response rating (pigweed; [3]) | Redroot pigweed plant response rating (pigweed; [8]) | Soybean plant response rating (soybean; [7]) | Soybean plant response rating (soybean; [8]) | Sugarbeets plant response rating (sugar beet; [7]) | Plant response rating, Sugarbeets (sugar beet; [13]) | Sugarbeets plant response rating (sugar beet; [9]) | Wild oats plant response rating (0 to 10 scale) (wild oat; [11])
4: Plant response rating, Bedstraw (bedstraw; [4]) | Blackgrass plant response rating (blackgrass; [7]) | Blackgrass plant response rating (blackgrass; [2]) | Plant response rating, Corn (corn; [5]) | Corn plant response rating (corn; [6]) | Corn plant response rating (corn; [9]) | Morningglory plant response rating (morningglory; [8]) | Redroot pigweed plant response rating (pigweed; [7]) | Rape plant response rating (rape; [7]) | Rape plant response rating (rape; [2]) | Plant response rating, Rape (rape; [5])
5: Plant response rating, Bedstraw (bedstraw; [5]) | Morningglory plant response rating (morningglory; [7]) | Morningglory plant response rating (morningglory; [2]) | Morningglory plant response rating (morningglory; [9]) | Plant response rating, Redroot pigweed (pigweed; [10]) | Plant response rating, Soybean (soybean; [4]) | Plant response rating, Soybean (soybean; [5]) | Plant response rating, Soybean (soybean; [10]) | Sugarbeets plant response rating (sugar beet; [6]) | Velvetleaf plant response rating (0 to 10 scale) (velvetleaf; [11]) | Plant response rating, Velvetleaf (velvetleaf; [12]) | Plant response rating, Wild oats (wild oat; [12]) | Wild oats plant response rating (wild oat; [6])
7: Bedstraw plant response rating (bedstraw; [6]) | Plant response rating, Blackgrass (blackgrass; [5]) | Blackgrass plant response rating (blackgrass; [6]) | Plant response rating, B. signalgrass (surinam grass; [4]) | B. signalgrass plant response rating (surinam grass; [6]) | Plant response rating, Redroot pigweed (pigweed; [5]) | Soybean plant response rating (soybean; [9]) | Velvetleaf plant response rating (velvetleaf; [6])
0: Bedstraw plant response rating (bedstraw; [3]) | Blackgrass plant response rating (blackgrass; [3]) | B. signalgrass plant response rating (surinam grass; [1]) | B. signalgrass plant response rating (surinam grass; [2]) | B. signalgrass plant response rating (surinam grass; Rate 125 g/ha, Postemergence, scale 0 to 10, 0 no effect, 10 complete control) | Cocklebur plant response rating (cocklebur; [3]) | Plant response rating, Cocklebur (cocklebur; [4]) | Plant response rating, Cocklebur (cocklebur; [5]) | Cocklebur plant response rating (cocklebur; [6]) | Cocklebur plant response rating (cocklebur; [8]) | Corn plant response rating (corn; [7]) | Corn plant response rating (corn; [2]) | Corn plant response rating (corn; [8]) | Morningglory plant response rating (morningglory; [3]) | Plant response rating, Morningglory (morningglory; [4]) | Plant response rating, Morningglory (morningglory; [5]) | Morningglory plant response rating (morningglory; [6]) | Rape plant response rating (rape; [3]) | Sugarbeets plant response rating (sugar beet; [3]) | Sugarbeets plant response rating (sugar beet; [8]) | Velvetleaf plant response rating (velvetleaf; [7]) | Velvetleaf plant response rating (velvetleaf; [3]) | Velvetleaf plant response rating (velvetleaf; [8]) | Wild oats plant response rating (wild oat; [7]) | Wild oats plant response rating (wild oat; [3]) | Wild oats plant response rating (wild oat; [8]) | Plant response rating, Wild oats (wild oat; [13]) | Nutsedge plant response rating (purple nutsedge; [7]) | Nutsedge plant response rating (purple nutsedge; [2]) | Nutsedge plant response rating (purple nutsedge; [3]) | Plant response rating, Nutsedge (purple nutsedge; [4]) | Plant response rating, Nutsedge (purple nutsedge; [5]) | Nutsedge plant response rating (purple nutsedge; [6]) | Nutsedge plant response rating (purple nutsedge; [8]) | Nutsedge plant response rating (purple nutsedge; [9]) | Rice plant response rating (rice; [14]) | Rice plant response rating (rice; [15]) | Plant response rating, Rice (rice; [16]) | Rice plant response rating (rice; [17]) | S. Flatsedge plant response rating (smallflower flatsedge; [14]) | S. Flatsedge plant response rating (smallflower flatsedge; [15]) | Plant response rating, S. Flatsedge (smallflower flatsedge; [16]) | S. Flatsedge plant response rating (smallflower flatsedge; [17]) | Barnyardgrass plant response rating (bamyardgrass; [1]) | Barnyardgrass plant response rating (bamyardgrass; Rate 125 g/ha, Postemergence section (flood test species), scale 0 to 10, 0 no effect, 10 complete control) | Barnyardgrass plant response rating (bamyardgrass; [17]) | Barnyardgrass plant response rating (bamyardgrass; flood test, listed under Postemergence, Rate 250 g/ha, scale 0 to 10, 0 no effect, 10 complete control)
2: Bedstraw plant response rating (bedstraw; [1]) | Cocklebur plant response rating (cocklebur; [7]) | Cocklebur plant response rating (cocklebur; [2]) | Corn plant response rating (corn; [3]) | Rape plant response rating (rape; [8]) | Plant response rating, Sugarbeets (sugar beet; [12]) | Velvetleaf plant response rating (velvetleaf; [9]) | Wild oats plant response rating (wild oat; [9])
1: Blackgrass plant response rating (blackgrass; [8]) | Plant response rating, Rape (rape; [4]) | Soybean plant response rating (soybean; [3]) | Sugarbeets plant response rating (0 to 10 scale) (sugar beet; [11]) | Plant response rating, Velvetleaf (velvetleaf; [13])
